Data set [1] deals with Glomerella lagenarium (Colletotrichum lagenarium). The data set can be described thus: Example A4: fungicidal activity against Glomerella lagenarium (Colletotrichum lagenarium) liquid culture / cucumber / preventative (anthracnose). The class given is cell-based. The conditions noted are these: Colletotrichum orbiculare, 20 ppm in the applied formulation, growth measured photometrically 3 to 4 days after application, read-out: disease control. The protocol:
Mycelia fragments or conidia suspensions of a fungus prepared either freshly from liquid cultures of the fungus or from cryogenic storage, are directly mixed into nutrient broth. DMSO solutions of the test compound (max. 10 mg/mL) are diluted with 0.025% Tween20 by a factor of 50 and 10 μL of this solution is pipetted into a microtiter plate (96-well format). The nutrient broth containing the fungal spores/mycelia fragments is then added to give an end concentration of the tested compound. The test plates are incubated in the dark at 24° C. and 96% relative humidity. The inhibition of fungal growth is determined photometrically after 2 to 7 days, depending on the pathosystem, and percent antifungal activity relative to the untreated check is calculated. Conidia of the fungus from cryogenic storage are directly mixed into nutrient broth (PDB—potato dextrose broth). After placing a (DMSO) solution of test compound into a microtiter plate (96-well format), the nutrient broth containing the fungal spores is added.

The subject of data set [2] is Puccinia recondita f. sp. tritici. Description: Example A1: fungicidal activity against Puccinia recondita f. sp. tritici / wheat / leaf disc preventative (brown rust). In kind it is in vivo. Conditions: foliar, 200 ppm in the applied formulation, wheat leaf segments, compared to untreated, read-out: disease control. The protocol:
(§1) Leaf disks or leaf segments of various plant species are cut from plants grown in a greenhouse. The cut leaf disks or segments are placed in multiwell plates (24-well format) onto water agar. The leaf disks are sprayed with a test solution before (preventative) or after (curative) inoculation. Compounds to be tested are prepared as DMSO solutions (max. 10 mg/mL) which are diluted to the appropriate concentration with 0.025% Tween20 just before spraying. The inoculated leaf disks or segments are incubated under defined conditions (temperature, relative humidity, light, etc.) according to the respective test system. A single evaluation of disease level is carried out 3 to 14 days after inoculation, depending on the pathosystem. Percent disease control relative to the untreated check leaf disks or segments is then calculated.
Wheat leaf segments cv. Kanzler were placed on agar in multiwell plates (24-well format) and sprayed with the formulated test compound diluted in water. The leaf disks were inoculated with a spore suspension of the fungus 1 day after application. The inoculated leaf segments were incubated at 19° C. and 75% relative humidity (rh) under a light regime of 12 hours light/12 hours darkness in a climate cabinet and the activity of a compound was assessed as percent disease control compared to untreated when an appropriate level of disease damage appears in untreated check leaf segments (7 to 9 days after application).

For data set [3] the test system is unchanged. Description: Example A2: fungicidal activity against Puccinia recondita f. sp. tritici / wheat / leaf disc curative (brown rust). In kind it is in vivo. Conditions: foliar, 24 h, 200 ppm in the applied formulation, curative (applied 1 day after inoculation), wheat leaf segments, read-out: disease control. The protocol:
as §1
Wheat leaf segments cv. Kanzler are placed on agar in multiwell plates (24-well format). The leaf segments are then inoculated with a spore suspension of the fungus. Plates were stored in darkness at 19° C. and 75% relative humidity. The formulated test compound diluted in water was applied 1 day after inoculation. The leaf segments were incubated at 19° C. and 75% relative humidity under a light regime of 12 hours light/12 hours darkness in a climate cabinet and the activity of a compound was assessed as percent disease control compared to untreated when an appropriate level of disease damage appears in untreated check leaf segments (6 to 8 days after application).

Another data set has as its system Phakopsora pachrhizi. The data set can be described thus: Example A3: fungicidal activity against Phakopsora pachrhizi / soybean / leaf disc preventative (Asian soybean rust). The class given is in vivo. Conditions: Phakopsora pachyrhizi, foliar, 200 ppm in the applied formulation, soybean leaf disks, read-out: disease control. The protocol: as §1
Soybean leaf disks are placed on water agar in multiwell plates (24-well format) and sprayed with the formulated test compound diluted in water. One day after application leaf discs are inoculated by spraying a spore suspension on the lower leaf surface. After an incubation period in a climate cabinet of 24-36 hours in darkness at 20° C. and 75% rh leaf disc are kept at 20° C. with 12 h light/day and 75% rh. The activity of a compound is assessed as percent disease control compared to untreated when an appropriate level of disease damage appears in untreated check leaf disks (12 to 14 days after application).

As a reminder, the melting point is the temperature of the solid-liquid transition. The compound `CON(C)C(=O)c1cnn(Cc2ccc(-c3noc(C(F)(F)F)n3)cc2)c1` [X.15, N-methoxy-N-methyl-1-[[4-[5-(trifluoromethyl)-1,2,4-oxadiazol-3-yl]phenyl]methyl]pyrazole-4-carboxamide] yielded a melting point of 102 to 112 °C. Besides, in data set [1], the inhibition of growth at 20 ppm is not below 80%. Besides, the pest or weed control at 200 ppm in data set [2] was not below 80%. Besides, in data set [3], the pest or weed control at 200 ppm was not below 80%. In addition, the pest or weed control at 200 ppm in the data set on Phakopsora pachrhizi was not below 80%.
In turn, `CCCOC(=O)c1cnn(Cc2ccc(-c3noc(C(F)(F)F)n3)cc2)c1` [X.16, propyl 1-[[4-[5-(trifluoromethyl)-1,2,4-oxadiazol-3-yl]phenyl]methyl]pyrazole-4-carboxylate] gave a melting point of 105 to 115 °C. In addition, the inhibition of growth at 20 ppm in data set [1] was not below 80%. In addition, the pest or weed control at 200 ppm in data set [2] is not below 80%. The pest or weed control at 200 ppm in data set [3] was not below 80%. For the same compound, in the data set with Phakopsora pachrhizi, the pest or weed control at 200 ppm was not below 80%.
Consider `CONC(=O)c1cnn(Cc2ccc(-c3noc(C(F)(F)F)n3)cc2)c1` [X.17, N-methoxy-1-[[4-[5-(trifluoromethyl)-1,2,4-oxadiazol-3-yl]phenyl]methyl]pyrazole-4-carboxamide], for which the melting point is 128 to 138 °C. Moreover, the inhibition of growth at 20 ppm in data set [1] is not below 80%. The pest or weed control at 200 ppm in data set [2] was not below 80%. Besides, the pest or weed control at 200 ppm in data set [3] was not below 80%. For the same compound, the pest or weed control at 200 ppm with Phakopsora pachrhizi is not below 80%.
In turn, `CCNC(=O)c1cnn(Cc2ccc(-c3noc(C(F)(F)F)n3)cc2)c1` [X.18, N-ethyl-1-[[4-[5-(trifluoromethyl)-1,2,4-oxadiazol-3-yl]phenyl]methyl]pyrazole-4-carboxamide] displayed a melting point of 166 to 176 °C. In addition, the inhibition of growth at 20 ppm in data set [1] was not below 80%. Moreover, in data set [2], the pest or weed control at 200 ppm is not below 80%. For the same compound, in data set [3], the pest or weed control at 200 ppm was not below 80%. For the same compound, in the data set with Phakopsora pachrhizi, the pest or weed control at 200 ppm was not below 80%.

Values taken from patent US20200315176A1, “FUNGICIDAL COMPOSITIONS” (SYNGENTA PARTICIPATIONS AG, priority 2017, published 2020).
